Values joined by “and” are separate entries in the source; they are usually repeats but may differ in a detail not shown here. Equal entries are not always repeated. Toxic doses and inconclusive results are not listed. Rule for the calls: active = survival T/C of 150% or more; inactive = T/C below 125% in these data.
System: P388 leukemia ip, CD2F1 mice, survival T/C
Assay: NCI In Vivo Anticancer Drug Screen. Data for tumor model P388 Leukemia (intraperitoneal) in CD2F1 (CDF1) mice
Conditions: endpoint: median survival time, higher = longer survival
How it was run: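 Mice carrying the transplanted tumor received test compound or vehicle. Survival was recorded in each group, and the value is the treated-group measurement divided by that of the vehicle-treated control group.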

[1] = dose: 50.0 mg/kg/injection, schedule: Q01DX005 (ip), vehicle: Klucel (hydroxypropylcellulose) (HPC)
[2] = dose: 100.0 mg/kg/injection, schedule: Q01DX005 (ip), vehicle: Klucel (hydroxypropylcellulose) (HPC)
[3] = dose: 200.0 mg/kg/injection, schedule: Q01DX005 (ip), vehicle: Klucel (hydroxypropylcellulose) (HPC)
[4] = dose: 100.0 mg/kg/injection, schedule: Q01DX001 (ip), vehicle: saline with Tween-80
[5] = dose: 200.0 mg/kg/injection, schedule: Q01DX001 (ip), vehicle: saline with Tween-80
[6] = dose: 25.0 mg/kg/injection, schedule: Q01DX005 (ip), vehicle: saline with Tween-80
[7] = dose: 50.0 mg/kg/injection, schedule: Q01DX005 (ip), vehicle: saline with Tween-80
[8] = dose: 100.0 mg/kg/injection, schedule: Q01DX005 (ip), vehicle: saline with Tween-80
[9] = dose: 200.0 mg/kg/injection, schedule: Q01DX005 (ip), vehicle: saline with Tween-80
[10] = dose: 50.0 mg/kg/injection, schedule: Q01DX009 (ip), vehicle: saline with Tween-80
[11] = dose: 100.0 mg/kg/injection, schedule: Q01DX009 (ip), vehicle: saline with Tween-80

Measured: T/C

CC(C)N=C(N)/N=C(\N)Nc1ccc2ccc3ccccc3c2c1
inactive: dose: 6.25 mg/kg/injection, schedule: Q01DX009 (ip), vehicle: Klucel (hydroxypropylcellulose) (HPC) 105 % of control | dose: 12.5 mg/kg/injection, schedule: Q01DX009 (ip), vehicle: Klucel (hydroxypropylcellulose) (HPC) 113 % of control | dose: 25.0 mg/kg/injection, schedule: Q01DX009 (ip), vehicle: Klucel (hydroxypropylcellulose) (HPC) 103 % of control

COc1cc(NC(C)=O)c2ncccc2c1NC(C)=O
inactive: [1] 99 % of control | [2] 96 % of control | [3] 87 % of control

C/C(=N\N=c1\sc2ccccc2n1CC(=O)O)c1ccc([N+](=O)[O-])cc1
inactive: [4] 93 % of control | [5] 101 % of control

CSc1ccc(N2C(N)=NC(N)=NC2(C)C)cc1
inactive: dose: 6.25 mg/kg/injection, schedule: Q01DX005 (ip), vehicle: saline with Tween-80 100 % of control | dose: 12.5 mg/kg/injection, schedule: Q01DX005 (ip), vehicle: saline with Tween-80 102 % of control | [6] 100 % of control

CC(C)CSc1nc2ccc(N=Cc3ccccc3O)cc2s1
inactive: dose: 50.0 mg/kg/injection, schedule: Q01DX009 (ip), vehicle: Klucel (hydroxypropylcellulose) (HPC) 94 % of control | dose: 100.0 mg/kg/injection, schedule: Q01DX009 (ip), vehicle: Klucel (hydroxypropylcellulose) (HPC) 92 % of control | dose: 200.0 mg/kg/injection, schedule: Q01DX009 (ip), vehicle: Klucel (hydroxypropylcellulose) (HPC) 89 % of control

CS/C(N)=N\NC(=O)COc1ccc(Cl)cc1
inactive: [7] 100 % of control | [8] 106 % of control | [9] 100 % of control

COc1cc2c(cc1C(C)c1ccc(Br)cc1)OCO2 (stereo not drawn)
inactive: [7] 96 % of control | [8] 103 % of control | [9] 100 % of control

COc1cc([N+](=O)[O-])ccc1C(=O)Nc1c2ccccc2nc2ccccc12
inactive: [6] 95 % of control | [7] 107 % of control | [8] 92 % of control | [9] 92 % of control

CCOCCOC(=O)c1nc2c(N)nc(-c3ccccc3)nc2nc1N
inactive: dose: 15.0 mg/kg/injection, schedule: Q01DX009 (ip), vehicle: saline with Tween-80 98 % of control | dose: 30.0 mg/kg/injection, schedule: Q01DX009 (ip), vehicle: saline with Tween-80 98 % of control | dose: 60.0 mg/kg/injection, schedule: Q01DX009 (ip), vehicle: saline with Tween-80 91 % of control

c1ccc(-c2csc3nc(N4CCCCC4)cn23)cc1
inactive: dose: 100.0 mg/kg/injection, schedule: Q04DX003 (ip), vehicle: saline + Tween-80 + alcohol 107 % of control | dose: 200.0 mg/kg/injection, schedule: Q04DX003 (ip), vehicle: saline + Tween-80 + alcohol 107 % of control

COc1cccc(CN2CCNCC2)c1
inactive: dose: 6.25 mg/kg/injection, schedule: Q01DX009 (ip), vehicle: water 90 % of control | dose: 12.5 mg/kg/injection, schedule: Q01DX009 (ip), vehicle: water 94 % of control | dose: 25.0 mg/kg/injection, schedule: Q01DX009 (ip), vehicle: water 93 % of control | dose: 50.0 mg/kg/injection, schedule: Q01DX009 (ip), vehicle: water 94 % of control

N#CCCP(=O)(O)CO
inactive: dose: 50.0 mg/kg/injection, schedule: Q01DX009 (ip), vehicle: saline 106 % of control | dose: 100.0 mg/kg/injection, schedule: Q01DX009 (ip), vehicle: saline 100 % of control | dose: 200.0 mg/kg/injection, schedule: Q01DX009 (ip), vehicle: saline 92 % of control

S=C(N/N=C/c1c[nH]c2ccccc12)NC12CC3CC(CC(C3)C1)C2
inactive: dose: 60.0 mg/kg/injection, schedule: Q01DX005 (ip), vehicle: saline with Tween-80 101 % of control | dose: 120.0 mg/kg/injection, schedule: Q01DX005 (ip), vehicle: saline with Tween-80 90 % of control

C=Cn1ccnc1C(O)(c1ccc(Cl)cc1)c1ccc(Cl)cc1
inactive: [10] 92 % of control and 94 % of control | [11] 100 % of control and 94 % of control | dose: 200.0 mg/kg/injection, schedule: Q01DX009 (ip), vehicle: saline with Tween-80 94 % of control | dose: 400.0 mg/kg/injection, schedule: Q01DX009 (ip), vehicle: saline with Tween-80 95 % of control and 98 % of control

CC(C)=CCC/C(C)=C/CSC#N
inactive: [6] 102 % of control | [7] 105 % of control | [8] 111 % of control | [9] 104 % of control

Cc1cnnc2c3ccccc3nn12
inactive: [1] 99 % of control | [2] 101 % of control | [3] 101 % of control

CCC(Nc1nncs1)Nc1nncs1
inactive: [1] 100 % of control | [2] 99 % of control | [3] 98 % of control

COc1ccc(/C=C2\C(=O)C(c3ccccc3)N(c3ccccc3)C2=O)cc1 (stereo not drawn)
inactive: dose: 12.5 mg/kg/injection, schedule: Q04DX002 (ip), vehicle: saline with Tween-80 91 % of control | dose: 25.0 mg/kg/injection, schedule: Q04DX002 (ip), vehicle: saline with Tween-80 92 % of control | dose: 50.0 mg/kg/injection, schedule: Q04DX002 (ip), vehicle: saline with Tween-80 98 % of control

Cc1cc(=O)c2ccccc2s1
inactive: [10] 104 % of control | [11] 113 % of control

O=C(c1ccccc1[N+](=O)[O-])C1OC1c1ccccc1 (stereo not drawn)
inactive: [1] 102 % of control | [2] 99 % of control | [3] 96 % of control

O=C(O)c1cccc2c1-c1ccccc1C2=O
inactive: dose: 12.5 mg/kg/injection, schedule: Q01DX005 (ip), vehicle: Klucel (hydroxypropylcellulose) (HPC) 94 % of control | dose: 25.0 mg/kg/injection, schedule: Q01DX005 (ip), vehicle: Klucel (hydroxypropylcellulose) (HPC) 99 % of control | [1] 97 % of control | [2] 100 % of control | [3] 103 % of control

O=C1C2C3C=CC(C2C(=O)N1c1ccccc1)C1C2C(=O)N(c4ccccc4)C(=O)C2C31 (stereo not drawn)
inactive: [4] 88 % of control | [5] 89 % of control | dose: 400.0 mg/kg/injection, schedule: Q01DX001 (ip), vehicle: saline with Tween-80 93 % of control

— PubChem BioAssay AID330 (DTP/NCI, 2004)
